Patent EP0600950B1, “AMIDE TETRAZOLE ACAT INHIBITORS” (priority 1991, dated 1993)

The compounds below were run on male Sprague-Dawley rats (assay: in vivo screen APCC, cholesterol-fed rats, blood cholesterol). Conditions: Table 2, dosed at 30 mg/kg unless otherwise noted, high fat, high cholesterol diet with 0.5% cholic acid overnight, blood cholesterol vs vehicle.
Text: In one in vivo screen designated APCC, male Sprague-Dawley rats (200 to 225 g) were randomly divided into treatment groups and dosed at 4 PM with either vehicle (CMC/Tween) or suspensions of compounds in vehicle. The normal chow diet was then replaced with a high fat, high cholesterol diet with 0.5% cholic acid. The rats consumed this diet ad libitum during the night and were sacrificed at 8 AM to obtain blood samples for cholesterol analysis using standard procedures. Statistical differences between mean cholesterol values for the same vehicle were determined using analysis of variance followed by Fisher's least significant test.

Compound | APCC (% ΔTC) [%]
(±)-2-Dodecyl-β-phenyl-N-(2,4-6-trimethoxyphenyl)-2H-tetrazole-5-propanamide and (±)-1-dodecyl-β-phenyl-N-(2,4,6-trimethoxyphenyl)-^1H-tetrazole-5-acetamide [Example 45] | -60

Each compound was assayed against acyl-CoA: cholesterol acyltransferase (ACAT) (assay: in vitro ACAT inhibition, rat liver microsomes (LAI)). Conditions: radiolabeled cholesterol oleate formed from radiolabeled oleic acid.
Type: biochemical
Text: (§1) The test assesses the ability of a test compound to inhibit the acylation of cholesterol by oleic acid by measuring the amount of radiolabeled cholesterol oleate formed from radiolabeled oleic acid in a tissue preparation containing rabbit intestinal microsomes (designated IAI) or from rat liver microsomes (designated LAI).

Compound | IC50 [nM]
CC(C)c1cccc(C(C)C)c1NC(=O)C(c1ccccc1)n1nnc(C(c2ccccc2)c2ccccc2)n1 (racemic) [Example 90, (±)-N-[2,6-bis(1-methylethyl)phenyl]-5-(diphenylmethyl)-α-phenyl-2H-tetrazole-2-acetamide] | 100
CCCCCCCCCCCCc1nnn(C(C(=O)Nc2c(C(C)C)cccc2C(C)C)c2ccccc2)n1 (racemic) [Example 92, (±)-N-[2,6-bis(1-methylethyl)phenyl]-5-dodecyl-α-phenyl-2H-tetrazole-2-acetamide] | 15
CCCCCCCCCCCCc1nnn(C(CCCCC)C(=O)Nc2c(C(C)C)cccc2C(C)C)n1 (racemic) [Example 93, (±)-N-[2,6-bis(1-methylethyl)phenyl]-5-dodecyl-α-pentyl-2H-tetrazole-2-acetamide] | 22
CCCCCCCCCCCCSc1nnn(C(C(=O)Nc2c(C(C)C)cccc2C(C)C)c2ccccc2)n1 (racemic) [Example 94, (±)-N-[2,6-bis(1-methylethyl)phenyl-5-(dodecylthio)-α-phenyl-2H-tetrazole-2-acetamide] | 29
COc1cc(OC)c(NC(=O)C(c2ccccc2)n2nnc(C(c3ccccc3)c3ccccc3)n2)c(OC)c1 (racemic) [Example 96, (±)-5-(diphenylmethyl)-α-phenyl-N-(2,4,6-trimethoxyphenyl)-2H-tetrazole-2-acetamide] | 190
CCCCCCCCCCCCc1nnn(C(C(=O)Nc2ccc(F)cc2F)c2ccccc2)n1 (racemic) [Example 100, (±)-N-(2,4-difluorophenyl-5-dodecyl-α-phenyl-2H-tetrazole-2-acetamide] | 80
CCCCCCCCCCc1nnn(CC(=O)Nc2c(C(C)C)cccc2C(C)C)n1 [Example 88, N-[2,6-bis(1-methylethyl)phenyl]-5-decyl-2H-tetrazole-2-acetamide] | 10
CCCCCCCCCCc1nnnn1CC(=O)Nc1c(C(C)C)cccc1C(C)C [Example 89, N-[2,6-bis(1-methylethyl)phenyl]-5-decyl-1H-tetrazole-1-acetamide] | 390
CCCCCCCCCCCCc1nnn(CC(=O)Nc2ccc(F)cc2F)n1 [Example 101, N-(2,4-difluorophenyl)-5-dodecyl-2H tetrazole-2-acetamide] | > 5000

Other lines, results leading:

IC50 [nM] | Compound
58 | CCCCCCCCCCc1nnn(C(C(=O)Nc2c(OC)cc(OC)cc2OC)c2ccccc2)n1 (racemic) [Example 95, (±)-5-decyl-α-phenyl-N-(2,4,6-trimethoxyphenyl-2H-tetrazole-2-acetamide]
21 | CCCCCCCCCCCCc1nnn(C(C(=O)Nc2c(OC)cc(OC)cc2OC)c2ccccc2)n1 (racemic) [Example 98, (±)-5-dodecyl-α-phenyl-N-(2,4,6-trimethoxyphenyl)-2H-tetrazole-2-acetamide]
32 | CCCCCCCCCCCCc1nnn(C(CCCCC)C(=O)Nc2c(OC)cc(OC)cc2OC)n1 (racemic) [Example 99, (±)-5-dodecyl-α-pentyl-N-(2,4,6-trimethoxyphenyl)-2H-tetrazole-2-acetamide]
49 | CCCCCCCCCCCCSc1nnn(C(C(=O)Nc2c(OC)cc(OC)cc2OC)c2ccccc2)n1 (racemic) [Example 103, (±)-5-(dodecylthio)-α-phenyl-N-(2,4,6-trimethoxyphenyl)-2H-tetrazole-2-acetamide]
55 | CCCCCCCCCCCC[S+]([O-])c1nnn(C(C(=O)Nc2c(OC)cc(OC)cc2OC)c2ccccc2)n1 (racemic) [Example 104, (±)-5-(dodecylsulfinyl)-α-phenyl-N-(2,4,6)-trimethoxyphenyl)-2H-tetrazole-2-acetamide]
6 | CCCCCCCCCCCCc1nnn(CC(=O)Nc2c(C(C)C)cccc2C(C)C)n1 [Example 91]
56 | CCCCCCCCCCCCc1nnn(CC(=O)Nc2c(OC)cc(OC)cc2OC)n1 [Example 97, 5-dodecyl-N-(2,4,6-trimethoxy-phenyl)-2H-tetrazole-2-acetamide]
42 | CCCCCCCCCCCCc1nnn(C(C)(C)C(=O)Nc2c(OC)cc(OC)cc2OC)n1 [Example 102, 5-dodecyl-α,α-dimethyl-N-(2,4,6-trimethoxyphenyl)-2H-tetrazole-2-acetamide]

The compounds below were run against acyl-CoA: cholesterol acyltransferase (ACAT) (assay: in vitro ACAT inhibition, rabbit intestinal microsomes (IAI)). Conditions: radiolabeled cholesterol oleate formed from radiolabeled oleic acid.
Type: biochemical
Text: as §1

Compound | IC50 [nM]
CCCCCCCCCCCCn1nnc(C(C(=O)Nc2c(C(C)C)cccc2C(C)C)(c2ccccc2)c2ccccc2)n1 [Example 46, N-[2,6-Bis(1-methylethyl)phenyl]-2-dodecyl-α,α-diphenyl-2H-tetrazole-5-acetamide] | 11000
(±)-2-Dodecyl-β-phenyl-N-(2,4-6-trimethoxyphenyl)-2H-tetrazole-5-propanamide and (±)-1-dodecyl-β-phenyl-N-(2,4,6-trimethoxyphenyl)-^1H-tetrazole-5-acetamide [Example 45] | 230

The next lines start with the values.

IC50 [nM] | Compound
69 | CCCCCCCCCCCCn1nnc(CCC(=O)Nc2c(OC)cc(OC)cc2OC)n1 [Example 34, 2-Dodecyl-N-(2,4,6-trimethoxyphenyl)-2H-tetrazole-5-propanamide]
9 | CCCCCCCCCCCCn1nnc(CCC(=O)Nc2c(C(C)C)cccc2C(C)C)n1 [Example 35, N-(2,6-Bis(1-methylethyl)phenyl)-2-dodecyl-2H-tetrazole-5-propanamide]
> 5000 | CCCCCCCCCCCCn1nnc(CCC(=O)Nc2ccc(F)cc2F)n1 [Example 36, N-(2,4-Difluorophenyl)-2-dodecyl-2H-tetrazole-5-propanamide]
210 | CCCCCCCCCCCCn1nnnc1CCC(=O)Nc1c(OC)cc(OC)cc1OC [Example 37, 1-Dodecyl-N-(2,4,6-trimethoxyphenyl)-1H-tetrazole-5-propanamide]
2100 | CCCCCCCCCCCCCCn1nnc(CCC(=O)Nc2c(OC)cc(OC)cc2OC)n1 [Example 47, 2-tetradecyl-N-(2,4,6-tri-methoxyphenyl)-2H-tetrazole-5-propanamide]
15 | CCCCCCCCCCCCCCn1nnc(CC(=O)Nc2c(OC)cc(OC)cc2OC)n1 [Example 49, 2-tetradecyl-N-(2,4,6-tri-methoxyphenyl)-2H-tetrazole-5-acetamide]
1000 | CCCCCCCCCCCCCCn1nnnc1CC(=O)Nc1c(OC)cc(OC)cc1OC [Example 50, 1-tetradecyl-N-(2,4,6-tri-methoxyphenyl)-1H-tetrazole-5-acetamide]
